From the supplement of paper PMC10307832

Assays:
Assay in all cases: relative viability (nuclei count vs DMSO), 5 days (fraction); higher = more cells survive
CAL-12T = tested on: CAL-12T
Procedure, shortened: (§1)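 One day after seeding in 1536-well plates, lung cancer cell lines were dosed by pin tool. Dosing was either single-drug or a fixed anchor-drug dose plus five library-drug doses (not always all listed) in √10 steps. After 5 days, nuclei were stained in one fix-and-stain step and counted on 4× images, and relative viability is the nuclei count of treated wells over that of vehicle wells, given as the median of duplicate plates.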

ChaGo-K-1 = tested on: ChaGo-K-1
Procedure, shortened: as §1

HCC-366 = tested on: HCC-366
Procedure, shortened: as §1

HCC-78 = tested on: HCC-78
Procedure, shortened: as §1

LC-2-ad = tested on: LC-2-ad
Procedure, shortened: as §1

LOU-NH91 = tested on: LOU-NH91
Procedure, shortened: as §1

LU99A = tested on: LU99A
Procedure, shortened: as §1

NCI-H1395 = tested on: NCI-H1395
Procedure, shortened: as §1

NCI-H1651 = tested on: NCI-H1651
Procedure, shortened: as §1

NCI-H1734 = tested on: NCI-H1734
Procedure, shortened: as §1

NCI-H1755 = tested on: NCI-H1755
Procedure, shortened: as §1

NCI-H1793 = tested on: NCI-H1793
Procedure, shortened: as §1

NCI-H1944 = tested on: NCI-H1944
Procedure, shortened: as §1

NCI-H2087 = tested on: NCI-H2087
Procedure, shortened: as §1

NCI-H2170 = tested on: NCI-H2170
Procedure, shortened: as §1

NCI-H2228 = tested on: NCI-H2228
Procedure, shortened: as §1

NCI-H2405 = tested on: NCI-H2405
Procedure, shortened: as §1

NCI-H3122 = tested on: NCI-H3122
Procedure, shortened: as §1

NCI-H460 = tested on: NCI-H460
Procedure, shortened: as §1

PC-3 [JPC-3] = tested on: PC-3 [JPC-3]
Procedure, shortened: as §1

RERF-LC-KJ = tested on: RERF-LC-KJ
Procedure, shortened: as §1

UMC-11 = tested on: UMC-11
Procedure, shortened: as §1

Which results are given for CC1(C)CCC(c2ccc(Cl)cc2)=C(CN2CCN(c3ccc(C(=O)NS(=O)(=O)c4ccc(N[C@H](CCN5CCOCC5)CSc5ccccc5)c(S(=O)(=O)C(F)(F)F)c4)cc3)CC2)C1 [Navitoclax] + Nc1nc2[nH]cc(CCc3ccc(C(=O)N[C@@H](CCC(=O)O)C(=O)O)cc3)c2c(=O)[nH]1 [Pemetrexed] (partner 0.2 µM)?
relative viability (CAL-12T; first compound 0.005 µM): 1.23; relative viability (CAL-12T; first compound 0.01581 µM): 1.34; relative viability (CAL-12T; first compound 0.05 µM): 1.23; relative viability (CAL-12T; first compound 0.1581 µM): 1.23; relative viability (CAL-12T; first compound 0.5 µM): 1.25; relative viability (ChaGo-K-1; first compound 0.005 µM): 0.258; relative viability (ChaGo-K-1; first compound 0.01581 µM): 0.26; relative viability (ChaGo-K-1; first compound 0.05 µM): 0.25; relative viability (ChaGo-K-1; first compound 0.1581 µM): 0.268; relative viability (ChaGo-K-1; first compound 0.5 µM): 0.265; relative viability (HCC-366; first compound 0.005 µM): 0.136; relative viability (HCC-366; first compound 0.01581 µM): 0.167; relative viability (HCC-366; first compound 0.1581 µM): 0.175; relative viability (HCC-366; first compound 0.5 µM): 0.145; relative viability (HCC-78; first compound 0.005 µM): 0.867; relative viability (HCC-78; first compound 0.01581 µM): 0.878; relative viability (HCC-78; first compound 0.05 µM): 0.921; relative viability (HCC-78; first compound 0.1581 µM): 0.875; relative viability (HCC-78; first compound 0.5 µM): 0.777; relative viability (LC-2-ad; first compound 0.005 µM): 0.268; relative viability (LC-2-ad; first compound 0.01581 µM): 0.263; relative viability (LC-2-ad; first compound 0.05 µM): 0.284; relative viability (LC-2-ad; first compound 0.1581 µM): 0.295; relative viability (LC-2-ad; first compound 0.5 µM): 0.275; relative viability (LOU-NH91; first compound 0.005 µM): 0.308; relative viability (LOU-NH91; first compound 0.01581 µM): 0.304; relative viability (LOU-NH91; first compound 0.05 µM): 0.26; relative viability (LOU-NH91; first compound 0.1581 µM): 0.285; relative viability (LOU-NH91; first compound 0.5 µM): 0.219; relative viability (LU99A; first compound 0.005 µM): 0.202; relative viability (LU99A; first compound 0.01581 µM): 0.205; relative viability (LU99A; first compound 0.1581 µM): 0.196; relative viability (LU99A; first compound 0.5 µM): 0.167; relative viability (NCI-H1395; first compound 0.005 µM): 0.763; relative viability (NCI-H1395; first compound 0.01581 µM): 0.853; relative viability (NCI-H1395; first compound 0.05 µM): 0.94; relative viability (NCI-H1395; first compound 0.1581 µM): 0.86; relative viability (NCI-H1395; first compound 0.5 µM): 0.913; relative viability (NCI-H1651; first compound 0.005 µM): 0.682; relative viability (NCI-H1651; first compound 0.01581 µM): 0.552; relative viability (NCI-H1651; first compound 0.05 µM): 0.503; relative viability (NCI-H1651; first compound 0.1581 µM): 0.633; relative viability (NCI-H1651; first compound 0.5 µM): 0.548; relative viability (NCI-H1734; first compound 0.005 µM): 0.394; relative viability (NCI-H1734; first compound 0.01581 µM): 0.421; relative viability (NCI-H1734; first compound 0.1581 µM): 0.367; relative viability (NCI-H1734; first compound 0.5 µM): 0.381; relative viability (NCI-H1755; first compound 0.005 µM): 0.371; relative viability (NCI-H1755; first compound 0.01581 µM): 0.419; relative viability (NCI-H1755; first compound 0.05 µM): 0.426; relative viability (NCI-H1755; first compound 0.1581 µM): 0.351; relative viability (NCI-H1755; first compound 0.5 µM): 0.433; relative viability (NCI-H1793; first compound 0.005 µM): 0.72; relative viability (NCI-H1793; first compound 0.01581 µM): 1.09; relative viability (NCI-H1793; first compound 0.1581 µM): 0.828; relative viability (NCI-H1793; first compound 0.5 µM): 0.643; relative viability (NCI-H1944; first compound 0.005 µM): 0.611; relative viability (NCI-H1944; first compound 0.01581 µM): 0.623; relative viability (NCI-H1944; first compound 0.1581 µM): 0.597; relative viability (NCI-H1944; first compound 0.5 µM): 0.534; relative viability (NCI-H2087; first compound 0.005 µM): 0.689; relative viability (NCI-H2087; first compound 0.01581 µM): 0.697; relative viability (NCI-H2087; first compound 0.1581 µM): 0.686; relative viability (NCI-H2087; first compound 0.5 µM): 0.675; relative viability (NCI-H2170; first compound 0.005 µM): 0.292; relative viability (NCI-H2170; first compound 0.01581 µM): 0.272; relative viability (NCI-H2170; first compound 0.05 µM): 0.273; relative viability (NCI-H2170; first compound 0.1581 µM): 0.266; relative viability (NCI-H2170; first compound 0.5 µM): 0.254; relative viability (NCI-H2228; first compound 0.005 µM): 0.314; relative viability (NCI-H2228; first compound 0.01581 µM): 0.306; relative viability (NCI-H2228; first compound 0.1581 µM): 0.336; relative viability (NCI-H2228; first compound 0.5 µM): 0.31; relative viability (NCI-H2405; first compound 0.005 µM): 1.02; relative viability (NCI-H2405; first compound 0.01581 µM): 1.07; relative viability (NCI-H2405; first compound 0.05 µM): 1.11; relative viability (NCI-H2405; first compound 0.1581 µM): 0.994; relative viability (NCI-H2405; first compound 0.5 µM): 0.896; relative viability (NCI-H3122; first compound 0.005 µM): 0.207; relative viability (NCI-H3122; first compound 0.01581 µM): 0.176; relative viability (NCI-H3122; first compound 0.05 µM): 0.211; relative viability (NCI-H3122; first compound 0.1581 µM): 0.183; relative viability (NCI-H3122; first compound 0.5 µM): 0.209; relative viability (NCI-H460; first compound 0.005 µM): 0.0632; relative viability (NCI-H460; first compound 0.01581 µM): 0.067; relative viability (NCI-H460; first compound 0.05 µM): 0.0532; relative viability (NCI-H460; first compound 0.1581 µM): 0.059; relative viability (NCI-H460; first compound 0.5 µM): 0.0583; relative viability (PC-3 [JPC-3]; first compound 0.005 µM): 1.12; relative viability (PC-3 [JPC-3]; first compound 0.01581 µM): 1.26; relative viability (PC-3 [JPC-3]; first compound 0.05 µM): 0.974; relative viability (PC-3 [JPC-3]; first compound 0.1581 µM): 1.02; relative viability (PC-3 [JPC-3]; first compound 0.5 µM): 0.754; relative viability (RERF-LC-KJ; first compound 0.005 µM): 0.476; relative viability (RERF-LC-KJ; first compound 0.01581 µM): 0.38; relative viability (RERF-LC-KJ; first compound 0.05 µM): 0.45; relative viability (RERF-LC-KJ; first compound 0.1581 µM): 0.484; relative viability (RERF-LC-KJ; first compound 0.5 µM): 0.496; relative viability (UMC-11; first compound 0.005 µM): 0.79; relative viability (UMC-11; first compound 0.01581 µM): 0.822; relative viability (UMC-11; first compound 0.05 µM): 0.821; relative viability (UMC-11; first compound 0.1581 µM): 0.759; relative viability (UMC-11; first compound 0.5 µM): 0.444
